One may read the MIC as the lowest concentration that inhibits growth of the organism.

Holding throughout (assay): In Vitro Anti-Bacterial Activity Test (MIC, agar dilution)
What all share (type): cell-based

Experiment [1] concerns Enterobacter cloacae 1321E. The conditions noted are these: Enterobacter cloacae 1321E; Muller-Hinton agar, 37° C., 18 hours; read-out: MIC. The procedure, abridged:
(§1)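 MIC values come from the lowest compound level in Muller-Hinton agar that stopped bacterial growth after 18 h at 37° C. Inocula contained 10^7 C.F.U./ml, and ciprofloxacin was run alongside as the reference antibacterial.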

Experiment [2] has as its system Enterobacter cloacae P99. Particulars: Enterobacter cloacae, P99, 18 h. The procedure, abridged:
(§2)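 Minimum inhibitory concentrations were determined by dilution of test compounds in Muller-Hinton agar, onto which 10^7 C.F.U./ml bacterial suspensions were inoculated and incubated at 37° C. for 18 hours.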

Experiment [3] concerns Escherichia coli 078. The conditions noted are these: Escherichia coli, 078, 18 h. The gist of the method:
as §1

Experiment [4] has as its system Escherichia coli 1507E. Particulars: Escherichia coli, 1507E, 18 h, Muller-Hinton agar, 37° C. The procedure, abridged: as §1
Experiment [5] deals with Escherichia coli DC0. The conditions noted are these: Muller-Hinton agar, 37° C., 18 hours, read-out: MIC. The procedure, abridged: as §1
For experiment [6], the system named is Escherichia coli DC2. The procedure, abridged:
as §1

The subject of experiment [7] is Escherichia coli TEM. The conditions noted are these: Escherichia coli, 18 h, Muller-Hinton agar, 37° C. The procedure, abridged:
as §2

The test system of experiment [8] is Klebsiella aerogenes 1522E. The conditions noted are these: Klebsiella aerogenes, 1522E, 18 h. The gist of the method:
as §1

The test system of experiment [9] is Klebsiella oxytoca 1082E. Particulars: Klebsiella oxytoca 1082E; Muller-Hinton agar, 37° C., 18 hours; read-out: MIC. The gist of the method:
as §1

Experiment [10] has as its system Pseudomonas aeruginosa 1592E. The conditions noted are these: Muller-Hinton agar, 37° C., 18 hours, read-out: MIC. The gist of the method: as §1
Experiment [11] concerns Pseudomonas aeruginosa 1771M. The conditions noted are these: Pseudomonas aeruginosa, 1771M, 18 h, Muller-Hinton agar, 37° C. The procedure, abridged:
as §1

Experiment [12] concerns Pseudomonas aeruginosa 1771. Particulars: Pseudomonas aeruginosa 1771; Muller-Hinton agar, 37° C., 18 hours; read-out: MIC. The procedure, abridged: as §1
For experiment [13], the system named is Pseudomonas aeruginosa 9027. Particulars: Muller-Hinton agar, 37° C., 18 hours, read-out: MIC. The gist of the method:
as §1

The subject of experiment [14] is Salmonella typhimurium. Particulars: Salmonella enterica. The gist of the method:
as §1

In experiment [15] the test system is Staphylococcus aureus 285. The conditions noted are these: Staphylococcus aureus, 285, 18 h, Staphylococcus aureus 285; Muller-Hinton agar, 37° C., 18 hours; read-out: MIC. The procedure, abridged: as §1
Experiment [16] deals with Staphylococcus aureus 503. The conditions noted are these: Staphylococcus aureus 503; Muller-Hinton agar, 37° C., 18 hours; read-out: MIC. The procedure, abridged: as §1
The subject of experiment [17] is Staphylococcus aureus SG511. The conditions noted are these: Staphylococcus aureus SG511; Muller-Hinton agar, 37° C., 18 hours; read-out: MIC. The procedure, abridged:
as §1

Experiment [18] relates to Streptococcus faecium MD8b. Particulars: Enterococcus faecium, Muller-Hinton agar, 37° C., 18 hours, read-out: MIC. The procedure, abridged: as §1
Experiment [19] deals with Streptococcus pyogenes 308A. Particulars: Muller-Hinton agar, 37° C., 18 hours, read-out: MIC. The procedure, abridged:
as §1

For experiment [20], the system named is Streptococcus pyogenes 77A. The procedure, abridged: as §1
The mark [21] stands for this setting: Klebsiella aerogenes 1522E, Muller-Hinton agar, 37° C., 18 hours, read-out: MIC.
[22] abbreviates: Salmonella typhimurium, Muller-Hinton agar, 37° C., 18 hours, read-out: MIC.
The mark [23] stands for this setting: Streptococcus pyogenes 77A, Muller-Hinton agar, 37° C., 18 hours, read-out: MIC.
Where [24] appears, read: Escherichia coli DC2, Muller-Hinton agar, 37° C., 18 hours, read-out: MIC.

Molecules are shown by their SMILES. Structures can show the parent of a compound that is named as a salt. Where two headings read alike, the source gives them in different places.

Regarding `CCOC(=O)C(C(=O)OCC)C(=O)c1cn(C2CC2)c2c(Cl)c(N3CC4=C(CNC4)C3)c(F)cc2c1=O` [Example 36, 1-cyclopropyl-6-fluoro-8-chloro-7-(3,7-diazabicyclo[3.3.0]oct-1,5-en-3-yl)-3-(2,2-diethoxycarbonylacetyl)-1,4-dihydro-4-oxoquinoline hydrochloride], the MIC turned out to be 0.025 µg/mL in experiment [1]; 0.025 µg/mL in experiment [2]; 0.007 µg/mL in experiment [3]; 0.025 µg/mL in experiment [4]; 0.195 µg/mL in [5]; 0.049 µg/mL in experiment [6] (Escherichia coli, DC2, 18 h). Also, the MIC in experiment [7] came to 0.025 µg/mL; in [8] (setting [21]), 0.025 µg/mL; in experiment [9], 0.007 µg/mL; in experiment [10], 0.781 µg/mL; in [11], 0.195 µg/mL; in experiment [12], 0.781 µg/mL. The MIC in experiment [13] stood at 1.56 µg/mL; in [14] (setting [22]), 0.025 µg/mL; in [15], 0.049 µg/mL; in experiment [16], 0.049 µg/mL; in experiment [17], 0.025 µg/mL; in experiment [18], 0.195 µg/mL. Besides, the MIC in [19] amounted to 0.391 µg/mL; in experiment [20] (setting [23]) it was 0.098 µg/mL.

For `CC(=O)CC(=O)c1cn(C2CC2)c2c(Cl)c(N3CCC(N)C3)c(F)cc2c1=O` (centres unmarked) [Example 37, 1-cyclopropyl-6-fluoro-8-chloro-7-(3-aminopyrrolidin-1-yl)-3-(2-acetoacetyl)-1,4-dihydro-4-oxoquinoline hydrochloride], the minimum inhibitory concentration (MIC) in experiment [1] amounted to 0.195 µg/mL; in [2], 0.195 µg/mL; in [3], 0.391 µg/mL; in [4], 0.195 µg/mL; in experiment [5], 0.781 µg/mL; in experiment [6] (Escherichia coli, DC2, 18 h), 0.391 µg/mL. In addition, the MIC in [7] was found to be 0.098 µg/mL; in experiment [8] (setting [21]), 0.391 µg/mL; in experiment [9] it was 0.195 µg/mL; in [10], 3.12 µg/mL; in experiment [11] it was 0.781 µg/mL; in experiment [12], 1.56 µg/mL. Also, the MIC in experiment [13] was 1.56 µg/mL; in [14] (setting [22]), 0.195 µg/mL; in experiment [15], 0.781 µg/mL; in experiment [16], 0.781 µg/mL; in [17] it was 0.781 µg/mL; in [18] it was 3.12 µg/mL. For the same compound, the MIC came to 1.56 µg/mL in [19] and 3.12 µg/mL in experiment [20] (setting [23]).

`NC1CCN(c2c(F)cc3c(=O)c(C(=O)CC(=O)C(F)(F)F)cn(C4CC4)c3c2Cl)C1` (centres unmarked) [Example 38, 1-cyclopropyl-6-fluoro-8-chloro-7-(3-aminopyrrolidin-1-yl)-3-(2-trifluoroacetoacetyl)-1,4-dihydro-4-oxoquinoline hydrochloride]: the MIC was 0.049 µg/mL in experiment [1]; 0.098 µg/mL in experiment [2]; 0.195 µg/mL in experiment [3]; 0.098 µg/mL in experiment [4]; 0.195 µg/mL in experiment [5]; 0.098 µg/mL in [6] (Escherichia coli, DC2, 18 h). Also, the MIC in experiment [7] turned out to be 0.195 µg/mL; in experiment [8] (setting [21]), 0.098 µg/mL; in [9], 0.025 µg/mL; in experiment [10] it was 0.781 µg/mL; in [11], 0.391 µg/mL; in experiment [12], 1.56 µg/mL. Further, the MIC was found to be 1.56 µg/mL in [13]; 0.049 µg/mL in experiment [14] (setting [22]); 0.781 µg/mL in experiment [15]; 0.391 µg/mL in [16]; 0.391 µg/mL in experiment [17]; 0.781 µg/mL in experiment [18]. Besides, the MIC in experiment [19] is 1.56 µg/mL; in experiment [20] (Streptococcus pyogenes, 77A, 18 h), 0.781 µg/mL.

Regarding `CCOC(=O)C(C#N)C(=O)c1cn(C2CC2)c2c(Cl)c(N3CCC(N)C3)c(F)cc2c1=O` (centres unmarked) [Example 39, 1-cyclopropyl-6-fluoro-8-chloro-7-(3-aminopyrrolidin-1-yl)-3-(2-cyano-2-ethoxycarbonylacetyl)-1,4-dihydro-4-oxoquinoline hydrochloride], the MIC was 0.049 µg/mL in [1]; 0.391 µg/mL in [2]; 0.049 µg/mL in [3]; 0.781 µg/mL in [4]; 6.25 µg/mL in [5]; 3.12 µg/mL in experiment [6] (setting [24]). Further, the MIC is 0.391 µg/mL in experiment [7]; 0.781 µg/mL in [8] (setting [21]); 0.049 µg/mL in experiment [9]; 12.5 µg/mL in experiment [10]; 3.12 µg/mL in experiment [11]; 12.5 µg/mL in experiment [12]. The MIC is 12.5 µg/mL in [13]; 0.391 µg/mL in experiment [14] (TYPHIMURIUM, 18 h); 1.56 µg/mL in experiment [15]; 1.56 µg/mL in experiment [16]; 1.56 µg/mL in experiment [17]; 6.25 µg/mL in experiment [18]. Besides, the MIC turned out to be 25 µg/mL in [19] and 6.25 µg/mL in experiment [20] (setting [23]).

On to `CCOC(=O)C(C#N)C(=O)c1cn(C2CC2)c2c(Cl)c(N3CC=C(CNC)C3)c(F)cc2c1=O` (centres unmarked) [Example 40, 1-cyclopropyl-6-fluoro-8-chloro-7-(3-methylaminomethyl-2,5-dihydropyrrol-1-yl)-3-(2-cyano-2-ethoxycarbonylacetyl)-1,4-dihydro-4-oxoquinoline hydrochloride], for which the MIC in experiment [1] was 0.049 µg/mL; in experiment [2] it was 0.391 µg/mL; in [3] it was 0.098 µg/mL; in experiment [4] it was 0.781 µg/mL; in [5] it was 6.25 µg/mL; in experiment [6] (setting [24]), 3.12 µg/mL. Also, the MIC in experiment [7] was 0.391 µg/mL; in experiment [8] it was 0.391 µg/mL; in [9], 0.049 µg/mL; in experiment [10], 6.25 µg/mL; in [11], 3.12 µg/mL; in experiment [12], 6.25 µg/mL. Moreover, the MIC in experiment [13] stood at 12.5 µg/mL; in experiment [14] (setting [22]), 0.195 µg/mL; in experiment [15], 3.12 µg/mL; in experiment [16], 1.56 µg/mL; in [17], 1.56 µg/mL; in [18], 12.5 µg/mL. For the same compound, the MIC is 25 µg/mL in [19] and 12.5 µg/mL in experiment [20] (setting [23]).

For the compound `CCOC(=O)C(C#N)C(=O)c1cn(C2CC2)c2c(Cl)c(N3CC4=C(CNC4)C3)c(F)cc2c1=O` (centres unmarked) [Example 41, 1-cyclopropyl-6-fluoro-8-chloro-7-(3,7-diazabicyclo[3.3.0]oct-1,5-en-3-yl)-3-(2-cyano-2-ethoxycarbonylacetyl)-1,4-dihydro-4-oxoquinoline hydrochloride], the MIC in experiment [1] was determined as 0.049 µg/mL; in [2], 0.098 µg/mL; in [3], 0.049 µg/mL; in [4], 0.391 µg/mL; in [5], 3.12 µg/mL; in [6] (Escherichia coli, DC2, 18 h), 1.56 µg/mL. The MIC in experiment [7] stood at 0.195 µg/mL; in [8], 0.195 µg/mL; in experiment [9], 0.049 µg/mL; in experiment [10], 3.12 µg/mL; in experiment [11], 1.56 µg/mL; in experiment [12], 3.12 µg/mL. In addition, the MIC turned out to be 6.25 µg/mL in [13]; 0.098 µg/mL in [14] (setting [22]); 6.25 µg/mL in experiment [15]; 6.25 µg/mL in experiment [16]; 3.12 µg/mL in experiment [17]; 25 µg/mL in experiment [18]. The MIC was 25 µg/mL in experiment [19] and 12.5 µg/mL in [20] (setting [23]).

For `N#CCC(=O)c1cn(C2CC2)c2c(Cl)c(N3CCC(N)C3)c(F)cc2c1=O` (centres unmarked) [Example 42, 1-cyclopropyl-6-fluoro-8-chloro-7-(3-aminopyrrolidin-1-yl)-3-(2-cyanoacetyl)-1,4-dihydro-4-oxoquinoline hydrochloride], the MIC was 0.098 µg/mL in [1]; 0.781 µg/mL in experiment [2]; 0.098 µg/mL in [3]; 0.195 µg/mL in experiment [4]; 12.5 µg/mL in experiment [5]; 3.12 µg/mL in experiment [6] (setting [24]). Also, the MIC came out at 0.781 µg/mL in experiment [7]; 1.56 µg/mL in experiment [8] (setting [21]); 0.098 µg/mL in experiment [9]; 12.5 µg/mL in experiment [10]; 6.25 µg/mL in [11]; 6.25 µg/mL in experiment [12]. Besides, the MIC in [13] was 2.5 µg/mL; in experiment [14] (setting [22]), 1.56 µg/mL; in experiment [15], 3.12 µg/mL; in experiment [16] it was 3.12 µg/mL; in experiment [17] it was 6.25 µg/mL; in experiment [18] it was 12.5 µg/mL. Also, the minimum inhibitory concentration (MIC) in experiment [19] is 25 µg/mL; in experiment [20] (setting [23]), 12.5 µg/mL.

The record behind these values is US5409933A, “Quinoline derivatives and processes for preparing the same” (priority 1993, dated 1995).
